Tests used:
[1] = tested on: normal C57BL/6J splenic B-cells (AID+/+) versus splenic B-cells from AID−/− mice; experiment: screening of DIDS derivatives, MultiTox-Fluor Multiplex Cytotoxicity Assay; assay type: cell-based, mouse; conditions: 10, 50 or 150 μM, 4 days of stimulation with anti-CD40 plus IL-4
Experimental: To identify bioactive derivatives of DIDS, a library of 10^5 chemical variants of DIDS was generated by replacing the sulfonate or isothiocyanate group with other chemical entities, or by altering the double bond joining the two rings in the stilbene backbone. All compounds were resuspended in dimethyl sulfoxide (DMSO) at a stock concentration of […], and used by serial dilution to generate working concentrations of 10, 50, or 150 μM. These were individually pipetted into 96-well microtiter culture dishes in duplicate, generating two plates of 10 μM, two plates of 50 μM, and two plates of 150 μM compounds. In each set, one plate was seeded with 100,000 normal C57BL/6J splenic B-cells (AID+/+) isolated by magnetic bead based sorting to enrich for B220+ IgM+ B-cells; and one plate was seeded with 100,000 splenic B-cells from AID−/− mice identically isolated. Each culture was stimulated on day 0 by addition of 1 μg/ml anti-CD40 plus 25 ng/ml IL-4 to induce proliferation and class-switch recombination. After two days, each culture was re-stimulated by an additional 1 μg/ml anti-CD40 plus 25 ng/ml IL-4. After two additional days in culture, for a total of 4 days of stimulation, viable cell counts were determined in each well of each plate using the MultiTox-Fluor Multiplex Cytotoxicity Assay (Promega, Inc.). For viability measurements, 100 microliters of the 2× MultiTox-Fluor Multiplex Cytotoxicity Reagent was added to each well and mixed before incubating at 37° C. for 30 min. Plates were then transferred to a fluorescence-capable multiplate reader and analyzed using 400 nm excitation and detection of 505 nm emission to measure the fraction of remaining live cells. As controls, wells containing either vehicle alone (DMSO) or 150 μM DIDS were included on each plate. Viability scores for each compound were determined as the fraction of live cells in the normal B-cell plate divided by the fraction of live cells in the corresponding AID knockout plate. Compounds that produce normal/AID knockout ratios at or below the level of the DIDS ratio were considered candidate compounds for further validation and testing. […] The initial screen identified 10 derivatives, BB5-6, BB1-6, BB1-7, BB2-6, BB2-5, BB5-39, BB4B-2, BB5-4, BB5-47, and BB8-1 (FIG. 10).

[2] = tested on: primary AID-knockout mouse splenocytes; experiment: viability of activated AID-null splenocytes treated with NS-123 (Trypan blue); assay type: cell-based
Experimental: Primary mouse B-cells were isolated from spleens of adult AID−/− mice as described in Example 1. Cultures were established at a concentration of 1×10^6 cells per ml in RPMI-1640 medium with 10% FBS. Cultures were activated with anti-CD40 antibody plus IL-4, and treated with 4′-Bromo-3′ nitropropiophenone (NS-123) (purchased from Calbiochem; CAS No. 101860-83-7) at concentrations of 0.5, 5, 50, or 500 μM. Cells were re-activated by anti-CD40 plus IL-4 after two days in culture. Cell counts were determined after 1, 2, 3, and 4 days in culture by Trypan blue staining. At the concentration of 50 μM and 500 μM of NS-123 AID-null splenocytes were not viable. At the concentration of 5 μM of NS-123 the viability of the splenocytes is reduced when compared to untreated splenocytes (FIG. 12).
Primary AID-knockout mouse splenocytes were seeded in cultures at day 0 at a concentration of 1×10^6 cells/ml in RPMI-1640 medium supplemented with anti-CD40 plus IL-4 to activate B-cells. Individual cultures were supplemented with 0, 5, 10, 20, 30, 40, or 50 μM NS-123 and viable cells were counted after Trypan blue staining on days 1, 2, 3, and 4 (FIG. 13).

[3] = tested on: U251, HT-29 and A549 tumor cells; conditions: cited from earlier work

Compound: CC(C)S(=O)(=O)Nc1ccc(/C=C/c2ccc(NS(=O)(=O)C(C)C)cc2)cc1 [BB1-6, (E)-N,N′-(ethene-1,2-diylbis(4,1-phenylene))bis(propane-2-sulfonamide)]
- viability score: fraction of live cells AID+/+ divided by fraction of live cells AID−/− (hit: ratio less than 1) [1]: identified

Compound: CN(C)S(=O)(=O)Nc1ccc(/C=C/c2ccc(NS(=O)(=O)N(C)C)cc2)cc1 [BB1-7, (E)-N,N′-(ethene-1,2-diylbis(4,1-phenylene))bis(dimethylamino-sulfonamide)]
- viability score: fraction of live cells AID+/+ divided by fraction of live cells AID−/− (hit: ratio less than 1) [1]: identified

Compound: CN(C)c1ccc(/C=C/c2ccc(NS(=O)(=O)C3CC3)cc2)cc1 [BB2-5, (E)-N-(4-(4-(dimethylamino)styryl)phenyl)cyclopropanesulfonamide]
- viability score: fraction of live cells AID+/+ divided by fraction of live cells AID−/− (hit: ratio less than 1) [1]: identified

Compound: CC(C)S(=O)(=O)Nc1ccc(/C=C/c2ccc(N(C)C)cc2)cc1 [BB2-6, (E)-N-(4-(4-(dimethylamino)styryl)phenyl)propane-2-sulfonamide]
- viability score: fraction of live cells AID+/+ divided by fraction of live cells AID−/− (hit: ratio less than 1) [1]: identified

Compound: CC(C)NC(=O)Nc1ccc(CCc2ccc(NC(=O)NC(C)C)cc2S(=O)(=O)[O-])c(S(=O)(=O)[O-])c1.[Na+].[Na+] [BB4B-2, sodium 6,6′-(ethane-1,2-diyl)bis(3-(3-isopropylureido)benzenesulfonate)]
- viability score: fraction of live cells AID+/+ divided by fraction of live cells AID−/− (hit: ratio less than 1) [1]: identified

Compound: CC(=O)Nc1ccc(/C=C/c2ccc(NS(=O)(=O)C3CC3)cc2S(=O)(=O)[O-])c(S(=O)(=O)[O-])c1.[Na+].[Na+] [BB5-4, sodium (E)-5-acetamido-2-(4-(cyclopropanesulfonamido)-2-sulfonatostyryl)benzenesulfonate]
- viability score: fraction of live cells AID+/+ divided by fraction of live cells AID−/− (hit: ratio less than 1) [1]: identified

Compound: CC(=O)Nc1ccc(/C=C/c2ccc(NS(=O)(=O)N(C)C)cc2S(=O)(=O)[O-])c(S(=O)(=O)[O-])c1.[Na+].[Na+] [BB5-6, sodium (E)-5-acetamido-2-(4-((N,N-dimethylsulfamoyl)amino)-2-sulfonatostyryl)benzenesulfonate]
- viability score: fraction of live cells AID+/+ divided by fraction of live cells AID−/− (hit: ratio less than 1) [1]: identified

Compound: CC(C)S(=O)(=O)Nc1ccc(/C=C/c2ccc(NC(=S)NC3CC3)cc2S(=O)(=O)[O-])c(S(=O)(=O)[O-])c1.[Na+].[Na+] [BB5-39, sodium (E)-5-(3-cyclopropylthioureido)-2-(4-(1-methylethylsulfonamido)-2-sulfonatostyryl)benzenesulfonate]
- viability score: fraction of live cells AID+/+ divided by fraction of live cells AID−/− (hit: ratio less than 1) [1]: identified

Compound: CCNC(=O)Nc1ccc(/C=C/c2ccc(NC(=O)COC)cc2S(=O)(=O)[O-])c(S(=O)(=O)[O-])c1.[Na+].[Na+] [BB5-47, sodium (E)-5-(3-ethylureido)-2-(4-(2-methoxyacetamido)-2-sulfonatostyryl)benzenesulfonate]
- viability score: fraction of live cells AID+/+ divided by fraction of live cells AID−/− (hit: ratio less than 1) [1]: identified

Compound: CNC(=O)c1ccc(/C=C/c2ccc(C(=O)NC)cc2)cc1 [BB8-1, (E)-4,4′-(ethene-1,2-diyl)bis(N-methylbenzamide)]
- viability score: fraction of live cells AID+/+ divided by fraction of live cells AID−/− (hit: ratio less than 1) [1]: identified

Compound: CCC(=O)c1ccc(Br)c([N+](=O)[O-])c1 [NS-123, 1-(4-bromo-3-nitrophenyl)propan-1-one]
- viability of AID-null splenocytes ([2]; 5 μM NS-123, compared to untreated splenocytes): reduced
- viability of AID-null splenocytes ([2]; 50 μM NS-123, activated with anti-CD40 plus IL-4): not viable
- viability of AID-null splenocytes ([2]; 500 μM NS-123, activated with anti-CD40 plus IL-4): not viable
- LD50 ([2]; AID-null splenocytes, activated with anti-CD40 plus IL-4): 14 µM
- concentration enhancing tumor growth-inhibitory effects of ionizing radiation ([3]; U251, HT-29 and A549 tumor cells): ~5 µM
- effect on normal cells and organisms ([3]; normal human glial cells, Zebrafish embryos and nude mice): no apparent effect
